From patent publication US20050113318A1, “Combination of dehydroepiandrosterone or dehydroepiandrosterone-sulfate with a beta-agonist bronchodilator for treatment of asthma or chronic obstructive pulmonary disease” (priority 2003, published 2005) come the findings set out here.

In data set [1] the test system is rat peritoneal mast cells. Put plainly: Compound 48/80-induced histamine release from rat peritoneal mast cells. The data set is classed as cell-based. The protocol: Following incubation, the mixture is cooled to 4° C. then centrifuged at 4500 rpm for 5 min. The supernatant is collected and mixed for 30 min at 4° C. with 5% TCA (trichloroacetic acid) to cause protein precipitation. After centrifugation at 9500×g for 15 min, the supernatant is collected and mixed with 0.25 M HCl. Thereafter, the samples are mixed with 2M NaOH and 0.2% OPT (ortho-phtalaldehyde).and incubated for 30 min at 4° C. in darkness, after which time the reaction is stopped by addition of 0.5 M H2SO4.
The amount of secreted histamine is quantified by measuring the fluorescence intensity at λex=360 nm and λem=450 nm using a spectrofluorimeter (GeminiXS, Molecular Devices). The results are expressed as a percent inhibition of control histamine secretion.

Data set [2] is described as follows: Fine particle fraction, single-dose Acu-Breathe inhaler into Andersen impactor. To be noted: neat micronized powder, 30 to 75 L/min, FIG. 1. Format: physicochemical. As to the method: These blisters are actuated into the Andersen 8-stage cascade impactor at flow rates ranging from 30 to 75 L/min with a glass twin-impinger throat. Stages 1-5 of the Andersen impactor are rinsed together to obtain an estimate of the fine particle fraction. Pooling the drug collected from multiple stages into one assay make the method much more sensitive. […] Using a carrier with a larger particle size typically improves the aerosol properties of micronized drug substances.
Approximately 25 mg of this powder is filled and sealed in foil blisters and aerosolized using the single-dose device at 60 L/min. The aerosol results for this preliminary powder blend are satisfactory for a respiratory drug delivery system. […] This diameter is smaller than the median diameter measured for micronized DHEA-S.dihydrate by laser diffraction. Irregularly shaped particles can behave aerodynamically as smaller particles since their longest dimension tends to align with the air flow field. Therefore, it is common to see a difference between the two methods. Diffraction measurements are a quality control test for the input material while cascade impaction is a quality control test for the finished product.

Data set [3] can be described thus: Physicochemical testing of DHEA-S dihydrate (BET surface area, Karl Fischer water, impurities). The protocol: (§1) Surface area is determined using five point BET analyses are performed with nitrogen as the adsorbing gas (P/Po=0.05 to 0.30) using a Micromeritics TriStar surface area analyzer. Particle size distributions are measured by laser diffraction using a Micromeritics Saturn Digisizer where the particles are suspended in mineral oil th sodium dioctyl sodium sulfosuccinate as a dispersing agent. Drug substance water content is measured by Karl Fischer titration (Schott Titroline KF). Pure water is used as the standard and all relative standard deviations for triplicates are less than 1%. Powder is added directly to the titration media.

Data set [4] in a line: Solid-state stability with and without lactose (DHEA formed, HPLC). Format: physicochemical. The text has this:
These conditions were used to stress the formulation in order to predict its long-term stability results. […] This color change is accompanied by a significant change in the chromatogram as shown in. FIG. 1. The primary degradant is DHEA. […] The materials on accelerated storage become more cohesive with time as evidenced by clumping during sample weighing for chemical analysis. […] This is a considerable disadvantage since lactose is the most commonly used inhalation excipient for dry powder formulations. Continuing with the virtually anhydrous form would mean limiting formulations to neat powder or undertaking more comprehensive safety studies to use a novel excipient.

Data set [5] can be described thus: Particle size of DHEA-S powders (laser diffraction, light microscope). Format: physicochemical. As to the method:
Approximately 1 g sample was passed through the jet mill, once, and approximately 2 g sample were passed through the jet mill twice. […] The resulting solution was sonicated for 3 minutes and appeared fully dispersed. The dispersed solutions were tested on a Malvern Mastersizer X with a small volume sampler (SVS) attachment. One sample of dispersed material was tested 5 times. The median particle size or D (v, 0.5) of unmilled material was 52.56 μm and the % RSD (relative standard deviation) was 7.61 for the 5 values. The D (v, 0.5) for a single pass through the jet mill was 3.90 μm and the % RSD was 1.27, and the D (v, 0.5) from a double pass through the jet mill 3.25 μm and the % RSD was 3.10.
The solution was spray-dried with a B-191 Mini Spray-Drier (Buchi, Flawil, Switzerland) with an inlet temperature of 55° C., outlet temperature of 40° C., at 100% aspirator, at 10% pump, nitrogen flow at 40 mbar and spray flow at 600 units. The spray-dried product was suspended in hexane and Span85 surfactant added to reduce agglomeration. The dispersions were sonicated with cooling for 3-5 minutes for complete dispersion and the dispersed solutions tested on a Malvern Mastersizer X with a Small Volume Sampler (SVS) attachment. […] Visual examination by light microscope of the dispersions of each batch confirmed that spray drying produced small respirable size particles. The mean particle size was 2.4 μm and 2.0 μm for each batch, respectively.
as §1

Data set [6] has as its system HT-29 SF cells. The data set can be described thus: Reversal of DHEA-mediated growth inhibition. The data set is classed as cell-based, human. Particulars: 25 μM DHEA, 48 hours; 2 μM MVA, 80 μM SQ, 15 μg/ml CH, RN 30 μM each, DN 20 μM each.
For data set [7], the system named is HT-29 SF cells. The data set can be described thus: Reversal of DHEA effect on cell cycle. Format: cell-based, human. Particulars: 25 μM DHEA, 48 and 72 hours.
Data set [8] is described as follows: Solubility of DHEA-S dihydrate and nebulizer solution properties. To be noted: for solubility: range of triplicates. Format: physicochemical. From the text:
Inhalation of pure water can produce a cough stimulus. […] The temperature effect is weaker at high NaCl concentrations.

Data set [9] in a line: Short-term solution stability of DHEA-S in 0.12% NaCl. The data set is classed as physicochemical. To be noted: for appearance / decomposition on storage: 10 mg/mL in 0.12% NaCl. As to the method:
Aliquots of this solution are filled into clear glass vials and stored at RT (24-26° C.) and at 40° C. The samples are checked daily for DHEA-S content, DHEA content, and appearance. For each time point, duplicate samples are withdrawn and diluted from each vial. […] The study is stopped on day three. […] The solution should easily be stable for the day of reconstitution in a clinical trial. The following section describes the aerosol properties of this formulation.

Data set [10] concerns tissue adenosine. Put plainly: In vivo effect on adenosine levels in various rat tissues. Also noted: species or system Fischer 344 rats. As to the method: Folinic acid (50 mg/kg) was administered intraperitoneally once daily for fourteen days. […] Hearts were removed from animals and flash frozen in liquid nitrogen with 10 s of death. Liver and lungs were removed en bloc and flash frozen with 30 s of death. Brain tissue was subsequently dissected.

The subject of data set [11] is HT-29 SF cells. Put plainly: DHEA effect on cell growth (Coulter counter). The data set is classed as cell-based, human. Particulars: 12.5-200 μM, 24-72 hours, FIG. 14.
Data set [12] has as its system HT-29 SF cells. Put plainly: DHEA effect on cell cycle distribution (flow cytometry). The data set is classed as cell-based, human. The protocol:
Cells were plated at 10^5/60-mm dish in duplicate. […] Cultures were trypsinized following […] and fixed and stained using a modification of a procedure of Bauer et al., Cancer Res. 46, 3173-3178 (1986). Briefly, cells were collected by centrifugation and resuspended in cold phosphate-buffered saline. Cells were fixed in 70% ethanol, washed, and resuspended in phosphate-buffered saline.
After 24, 48, and 72 hours, cells were harvested, fixed in ethanol, and stained with propidium iodide, and the DNA content/cell was determined by flow cytometric analysis. The percentage of cells in G1, S, and G2M phases was calculated using the Cellfit cell cycle analysis program. S phase is marked by a quadrangle for clarity. Representative histograms from duplicate determinations are shown. The experiment was repeated three times.
On the technique in general: In flow cytometry, cells or beads pass a laser one at a time.

The mark [13] stands for this setting: rat, daily for two weeks, DHEA, high dose methyltestosterone.

In general, inhibition refers to the change of the read-out against control, counted positive when it falls. `CC(C)(C)NCC(O)c1ccc(O)c(CO)c1` (stereo not drawn) [Salbutamol, (α1-tert-butylaminomothyl)-4-hydroxy-m-xylene-α1,α3-diol]: in data set [1] (Rattus norvegicus, Mast cell), the inhibition at 1 pM was -1%, the inhibition at 10 pM is 7% and the inhibition at 0.0001 µM is 2%. Moreover, in data set [1] (Salbutamol 1, 10 and 100 pM alone), the “inhibition of compound 48/80-induced histamine release” value is “no or trivial inhibition”.
For `CC12CCC3C(CC=C4CC(OS(=O)(=O)[O-])CCC43C)C1CCC2=O.[Na+]` (centres unmarked) [DHEA-S dihydrate], the “fine particle fraction as a function of flow rate” value in data set [2] is reported as “higher fine particle fraction than the virtually anhydrous material”. Moreover, the Impurities entry in data set [3] (Bulk) and in [3] (Micronized) was “No significant peaks” in each case. Also, the Water amounted to 8.5 % w/w in data set [3] (Bulk) and 8.4 % w/w in data set [3] (Micronized). The same molecule registered a Surface area in data set [3] (Micronized) of 4.9 m^2/g. The DHEA % formed turned out to be 0.216% in [4] (50° C., 1 week); 0.317% in data set [4] (50° C., 3 weeks); 0.374% in [4] (50° C., 4 weeks); 0.218% in data set [4] (Control: neat, sealed vial, 25° C., 4 weeks); 0.213% in [4] (Control: neat, sealed vial, 25° C., first time column (head empty, time 0)). Moreover, in data set [4] (before storage), the “water content, starting value” turned out to be 8.8%. Moreover, the “water content after accelerated storage” value in [4] (one week at 50° C.) is on record as 8.66%. In addition, the “Particle size (D50%)” value in data set [5] (Bulk, before micronization) is 31 microns; in data set [5] (Micronized), 3.7 microns.
Regarding `CC(C)=CCC/C(C)=C/CC/C(C)=C/CC/C=C(\C)CC/C=C(\C)CCC=C(C)C` [SQ, squalene], in data set [6], the “reversal of DHEA-induced growth inhibition by supplement” value was “no such effect”.
In the case of `CC(C)CCC[C@@H](C)[C@H]1CC[C@H]2[C@@H]3CC=C4C[C@@H](O)CC[C@]4(C)[C@H]3CC[C@]12C` [CH, cholesterol], the “reversal of DHEA-induced growth inhibition by supplement” value in data set [6] was “no such effect”. Further, the “prevention of DHEA-induced S phase depletion by supplement” value in [7] was “very little effect at 48 hours and no effect at 72 hours”.
A word on the solubility: it is the dissolved amount per volume that the medium holds. A high value points to a readily soluble substance. As for `C[C@]12CC[C@H](OS(=O)(=O)[O-])CC1=CC[C@@H]1[C@@H]2CC[C@]2(C)C(=O)CC[C@@H]12.[Na+]` [DHEA-S, sodium dehydroepiandrostenone sulfate], in data set [8], the solubility in hexane entry is reported as “insoluble”. The solubility in data set [8] (0.9% NaCl, refrigerated (7-8° C.)) was 1100 to 1300 µg/mL; in data set [8] (~25° C., 0% NaCl, excess DHEA-S dihydrate), 16500 to 17400 µg/mL. In [8] (15° C., interpolated), this molecule had a Ksp of approximately 1316 mM^2. Further, the “equilibrium constant Ksp” value in data set [8] (refrigerated (7-8° C.)) came to 665 mM^2; in [8] (room temperature (24-25° C.)), 2236 mM^2. The “solution stability of nebulizer formulation” value in data set [9] (7.5 mg/mL in 0.12% NaCl, RT) is on record as “stable for at least one day at RT”. The “appearance / decomposition on storage” value in [9] (40° C.) is “became cloudy after two days of storage”; in data set [9] (RT (24-26° C.)), “slight precipitate is observed on the third day”.
Turning to `C[C@@](O)(CCO)CC(=O)O` [MVA, mevalonic acid], the “reversal of DHEA-induced growth inhibition by supplement” value in data set [6] is “partially overcome”. Further, the “prevention of DHEA-induced S phase depletion by supplement” value in data set [7] was “partially prevented this effect in the initial 48 hours but not after 72 hours”.
Turning to `Nc1nc(=O)c2c([nH]1)NCC(CNc1ccc(C(=O)N[C@@H](CCC(=O)O)C(=O)O)cc1)N2C=O` (mixture of isomers) [Folinic Acid], the “Intracellular adenosine, Brain” value in [10] (rat brain, once daily 14 days, DHEA 300 mg/kg, methyltestosterone 40 mg/kg by gavage, folinic acid 50 mg/kg i.p., mean ± SEM) is 0.72 ± 0.09 nmols/mg protein. Further, in data set [10] (rat heart, once daily 14 days, DHEA 300 mg/kg, methyltestosterone 40 mg/kg by gavage, folinic acid 50 mg/kg i.p., mean ± SEM), the “Intracellular adenosine, Heart” value was determined as 12.4 ± 2.1 nmols/mg protein. Besides, in data set [10] (rat liver, once daily 14 days, DHEA 300 mg/kg, methyltestosterone 40 mg/kg by gavage, folinic acid 50 mg/kg i.p., mean ± SEM), the “Intracellular adenosine, Liver” value came out at 16.4 ± 2.4 nmols/mg protein. The “adenosine levels, folinic acid administered alone” value in data set [10] (rat, 50 mg/kg i.p. 14 days) is “increase in adenosine levels for all organs studied”. For the same molecule, the “effect of coadministration of folinic acid on steroid-mediated adenosine depletion” value in data set [10] (rat, with DHEA or methyltestosterone) was “completely abrogated”.
Consider `C[C@]12CCC(=O)C=C1CC[C@@H]1[C@@H]2CC[C@@]2(C)[C@H]1CC[C@]2(C)O` [Methyltestosterone], for which the “Intracellular adenosine, Liver” value in data set [10] (rat liver, methyltestosterone 120 mg/kg, mean ± SEM) amounted to 5.1 ± 0.5 nmols/mg protein. For the same molecule, in [10] (setting [13]), the “depletion of adenosine in brain” value is 34% and the “depletion of adenosine in heart” value turned out to be 22%. Further, the “Intracellular adenosine, Liver” value in data set [10] (rat, in vivo) is on record as 16.5 ± 0.9 nmols/mg protein.
`C[C@]12CC[C@H](O)CC1=CC[C@@H]1[C@@H]2CC[C@]2(C)C(=O)CC[C@@H]12` [DHEA, 3β-hydroxyandrost-5-en-17-one]: in data set [11], the inhibition of growth entry is “time- and dose-dependent inhibition of growth”. Besides, the cell cycle distribution entry was “increase in the percentage of cells in G1 and a decreased proportion of cells in S phase” in data set [12] (200 μM DHEA, 24 hours); “percentage of cells in G1 phase was increased” in [12] (25 or 50 μM DHEA, 72 hours); “unchanged” in data set [12] (25 or 50 μM DHEA, initial 24 hours). In data set [12] (25-200 μM, 24-72 hours, FIG. 15), the cell cycle block result is on record as “G1 block”.
